Results from PMC10408569, “Recruitment of hexahydroquinoline as anticancer scaffold targeting inhibition of wild and mutants EGFR (EGFR^WT, EGFR^T790M, and EGFR^L858R)” (Journal of Enzyme Inhibition and Medicinal Chemistry, 2023).

How the values were obtained:
MOLT-4 = assay: NCI-60 anticancer screening (SRB); format: cell-based; details: Homo sapiens; MOLT-4, leukemia; one dose 10 μM; read-out: Growth Inhibition Percentage (GI %)
RPMI-8226 = assay: NCI-60 anticancer screening (SRB); format: cell-based; details: Homo sapiens; RPMI-8226, leukemia; one dose 10 μM; read-out: Growth Inhibition Percentage (GI %)
A549/ATCC = assay: NCI-60 anticancer screening (SRB); format: cell-based; details: Homo sapiens; A549/ATCC, NSC lung cancer; one dose 10 μM; read-out: Growth Inhibition Percentage (GI %)
EKVX = assay: NCI-60 anticancer screening (SRB); format: cell-based; details: Homo sapiens, NSC lung cancer, one dose 10 μM, read-out: Growth Inhibition Percentage (GI %)
HOP-62 = assay: NCI-60 anticancer screening (SRB); format: cell-based; details: Homo sapiens; HOP-62, NSC lung cancer; one dose 10 μM; read-out: Growth Inhibition Percentage (GI %)
HOP-92 = assay: NCI-60 anticancer screening (SRB); format: cell-based; details: Homo sapiens; HOP-92, NSC lung cancer; one dose 10 μM; read-out: Growth Inhibition Percentage (GI %)
NCI-H460 = assay: NCI-60 anticancer screening (SRB); format: cell-based; details: Homo sapiens; NCI-H460, NSC lung cancer; one dose 10 μM; read-out: Growth Inhibition Percentage (GI %)
NCI-H522 = assay: NCI-60 anticancer screening (SRB); format: cell-based; details: Homo sapiens; NCI-H522, NSC lung cancer; one dose 10 μM; read-out: Growth Inhibition Percentage (GI %)
HCC-2998 = assay: NCI-60 anticancer screening (SRB); format: cell-based; details: Homo sapiens; HCC-2998, colon cancer; one dose 10 μM; read-out: Growth Inhibition Percentage (GI %)
HT29 = assay: NCI-60 anticancer screening (SRB); format: cell-based; details: Homo sapiens, HT-29; HT29, colon cancer; one dose 10 μM; read-out: Growth Inhibition Percentage (GI %)
SF-295 = assay: NCI-60 anticancer screening (SRB); format: cell-based; details: Homo sapiens; SF-295, CNS cancer; one dose 10 μM; read-out: Growth Inhibition Percentage (GI %)
SF-539 = assay: NCI-60 anticancer screening (SRB); format: cell-based; details: Homo sapiens; SF-539, CNS cancer; one dose 10 μM; read-out: Growth Inhibition Percentage (GI %)
SNB-19 = assay: NCI-60 anticancer screening (SRB); format: cell-based; details: Homo sapiens; SNB-19, CNS cancer; one dose 10 μM; read-out: Growth Inhibition Percentage (GI %)
MALME-3M = assay: NCI-60 anticancer screening (SRB); format: cell-based; details: Homo sapiens, melanoma, one dose 10 μM, read-out: Growth Inhibition Percentage (GI %)
MDA-MB-435 = assay: NCI-60 anticancer screening (SRB); format: cell-based; details: Homo sapiens; MDA-MB-435, melanoma; one dose 10 μM; read-out: Growth Inhibition Percentage (GI %)
SK-MEL-28 = assay: NCI-60 anticancer screening (SRB); format: cell-based; details: Homo sapiens; SK-MEL-28, melanoma; one dose 10 μM; read-out: Growth Inhibition Percentage (GI %)
SK-MEL-5 = assay: NCI-60 anticancer screening (SRB); format: cell-based; details: Homo sapiens; SK-MEL-5, melanoma; one dose 10 μM; read-out: Growth Inhibition Percentage (GI %)
UACC-62 = assay: NCI-60 anticancer screening (SRB); format: cell-based; details: Homo sapiens; UACC-62, melanoma; one dose 10 μM; read-out: Growth Inhibition Percentage (GI %)
OVCAR-3 = assay: NCI-60 anticancer screening (SRB); format: cell-based; details: Homo sapiens; OVCAR-3, ovarian cancer; one dose 10 μM; read-out: Growth Inhibition Percentage (GI %)
OVCAR-4 = assay: NCI-60 anticancer screening (SRB); format: cell-based; details: Homo sapiens; OVCAR-4, ovarian cancer; one dose 10 μM; read-out: Growth Inhibition Percentage (GI %)
OVCAR-8 = assay: NCI-60 anticancer screening (SRB); format: cell-based; details: Homo sapiens; OVCAR-8, ovarian cancer; one dose 10 μM; read-out: Growth Inhibition Percentage (GI %)
ACHN = assay: NCI-60 anticancer screening (SRB); format: cell-based; details: Homo sapiens, renal cancer, one dose 10 μM, read-out: Growth Inhibition Percentage (GI %)
CAKI-1 = assay: NCI-60 anticancer screening (SRB); format: cell-based; details: Homo sapiens; CAKI-1, renal cancer; one dose 10 μM; read-out: Growth Inhibition Percentage (GI %)
SN 12C = assay: NCI-60 anticancer screening (SRB); format: cell-based; details: Homo sapiens, SN12C; SN 12C, renal cancer; one dose 10 μM; read-out: Growth Inhibition Percentage (GI %)
UO-31 = assay: NCI-60 anticancer screening (SRB); format: cell-based; details: Homo sapiens; UO-31, renal cancer; one dose 10 μM; read-out: Growth Inhibition Percentage (GI %)
DU-145 = assay: NCI-60 anticancer screening (SRB); format: cell-based; details: Homo sapiens; DU-145, prostate cancer; one dose 10 μM; read-out: Growth Inhibition Percentage (GI %)
HS 578T = assay: NCI-60 anticancer screening (SRB); format: cell-based; details: Homo sapiens; HS 578T, breast cancer; one dose 10 μM; read-out: Growth Inhibition Percentage (GI %)

SMILES | inhibition at 10 µM (MOLT-4) | inhibition at 10 µM (RPMI-8226) | inhibition at 10 µM (A549/ATCC) | inhibition at 10 µM (EKVX) | inhibition at 10 µM (HOP-62) | inhibition at 10 µM (HOP-92) | inhibition at 10 µM (NCI-H460) | inhibition at 10 µM (NCI-H522) | inhibition at 10 µM (HCC-2998) | inhibition at 10 µM (HT29) | inhibition at 10 µM (SF-295) | inhibition at 10 µM (SF-539) | inhibition at 10 µM (SNB-19) | inhibition at 10 µM (MALME-3M) | inhibition at 10 µM (MDA-MB-435) | inhibition at 10 µM (SK-MEL-28) | inhibition at 10 µM (SK-MEL-5) | inhibition at 10 µM (UACC-62) | inhibition at 10 µM (OVCAR-3) | inhibition at 10 µM (OVCAR-4) | also measured
CCOC(=O)C1=C(N)N(c2ccc(Cl)cc2)C2=C(C(=O)CC(C)(C)C2)C1c1ccc(N2CCOCC2)cc1 (racemic) [8m, (±)-Ethyl 2-amino-1–(4-chlorophenyl)-7,7-dimethyl-4-[4-(morpholin-4-yl)phenyl]-5-oxo-1,4,5,6,7,8-hexahydroquinoline-3-carboxylate] | < 10% | < 10% | < 10% | 25% | < 10% | < 10% | < 10% | 11% | < 10% | < 10% | 11% | < 10% | < 10% | < 10% | < 10% | < 10% | 20% | 17% | < 10% | < 10% | inhibition at 10 µM (OVCAR-8): < 10%; inhibition at 10 µM (ACHN): < 10%; inhibition at 10 µM (CAKI-1): 13%; inhibition at 10 µM (SN 12C): < 10%; inhibition at 10 µM (UO-31): 15%; inhibition at 10 µM (DU-145): < 10%; inhibition at 10 µM (HS 578T): < 10%; melting point: 175 to 177 °C
CCOC(=O)C1=C(N)N(c2ccccc2)C2=C(C(=O)CC(C)(C)C2)C1c1ccccn1 (racemic) [12a, (±)-Ethyl 2-amino-7,7-dimethyl-5-oxo-1-phenyl-4-(pyridin-2-yl)-1,4,5,6,7,8-hexahydroquinoline-3-carboxylate] | < 10% | < 10% | < 10% | < 10% | < 10% | < 10% | < 10% | 11% | < 10% | < 10% | < 10% | < 10% | < 10% | < 10% | < 10% | < 10% | < 10% | < 10% | < 10% | < 10% | inhibition at 10 µM (OVCAR-8): < 10%; inhibition at 10 µM (ACHN): < 10%; inhibition at 10 µM (CAKI-1): < 10%; inhibition at 10 µM (SN 12C): < 10%; inhibition at 10 µM (UO-31): < 10%; inhibition at 10 µM (DU-145): < 10%; inhibition at 10 µM (HS 578T): < 10%; melting point: 158 to 160 °C
